Data set [1] is described as follows: Plasma glucose and insulin levels. It counts as in vivo, mouse. The following applies: single oral dose 10 mg kg−1. Here is the method: Plasma glucose and insulin levels were determined following a single oral dose of CAL-130 (10 mg kg^−1). Blood was collected into K2EDTA tubes by cardiac puncture at baseline and 0, 2, 4, and 8 hours post-dose, and plasma samples frozen at −80° C. until analysis. The insulin and glucose levels were determined by using an Ultra Sensitive Mouse Insulin ELISA Kit (Crystall Chem Inc.) or WaveSense Presto Blood Glucose Monitoring System (Agamatrix Inc., Boston, MA), respectively.

Another data set deals with CCRF-CEM cells. Description: Cell proliferation and apoptosis (cell counting, Annexin V). It counts as cell-based, human. The conditions noted are these: CCRF-CEM. Here is the method: Cell proliferation of CCRF-CEM cells or shRNA transfected CCRF-CEM cells, in the presence or absence of appropriate drug, was followed by cell counting of samples in triplicate using a hemocytometer and trypan blue. For apoptosis determinations of untransfected or shRNA transfected CCRF-CEMs, cells were stained with APC-conjugated Annexin-V (BD Biosciences) in Annexin Binding Buffer (Miltyeni Biotec) and analyzed by flow cytometry. For primary T-ALL samples, cell viability was assessed using the BD Cell Viability kit (BD Biosciences) coupled with the use of fluorescent counting beads as previously described (Armstrong et al., 2009). For this, cells were plated with MS5-DL1 stroma cells, and after 72 hours following drug treatment cells were harvested and stained with an APC-conjugated anti-human CD45 followed by a staining with the above kit according to the manufacturer's instructions.

Setting [2] is: within 24 hours, persisted over 4 days.

The record followed here is patent US11969428B2, “Methods and pharmaceutical compositions for treating lymphoid malignancy” (priority 2011, dated 2024).

Regarding `Cc1ccccc1-n1c(C(C)Nc2nc(N)nc3nc[nH]c23)nc2cccc(C)c2c1=O` (centres unmarked) [CAL-130], in data set [1], the plasma glucose levels entry is given as “did not affect” and the plasma insulin levels entry is recorded as “did not affect”. Besides, in the data set on CCRF-CEM cells (dexamethasone in combination with 2.5 μM CAL-130), the “apoptotic properties of dexamethasone” value is recorded as “significantly enhanced”. Moreover, in the data set on CCRF-CEM cells (setting [2]), the apoptosis entry is listed as “promoted apoptosis” and the proliferation result is listed as “prevented proliferation”.
